Patent US9561237B1, “Bis-(triethylphosphine)platinum(II) complexes with thiones as anti cancer agents” (KING FAHD UNIVERSITY OF PETROLEUM AND MINERALS, priority 2016, dated 2017)

How the values were obtained:
Assay type in all cases: cell-based
[1] = system: MCF-7 (human breast cancer) cell line; experiment: In vitro cytotoxic activity, MTT assay, MCF-7; details: for IC50: MCF7, 50, 25, 12.5 and 6.25 μM, three independent experiments, read-out: IC50 ± SEM (50% cell growth inhibition), MCF7; for Cytotoxic activity in words (comparison): MCF-7, 6.2 μM to 50 μM
Description: (§1) A Pt(II) metal precursor, cisplatin, carboplatin and seven synthesized complexes (1)-(7) were evaluated for their in-vitro cytotoxic activity against HeLa (human cervical cancer), A549 (human lung cancer), MCF-7 (human breast cancer) and HTC15 (human colon cancer) cell lines.
(§2) The cells were seeded at 4×10^3 cells/well in 100 μL DMEM (Dulbecco's Modified Eagle's Medium) containing 10%. FBS (Fetal Bovine Serum) in 96-well tissue culture plate and incubated for 72 h at 37° C., 5% CO2 in air and 90% relative humidity in CO2 incubator. […] The medium of wells was discarded and 100 μL DMEM containing MTT (3-(4,5-dimethylthiazol-2-Yl)-2,5-diphenyltetrazolium bromide) (5 mg/mL) was added to the wells and incubated in CO2 incubator at 37° C. in dark for 4 h. After incubation, a purple colored formazan (artificial chromogenic dye, product of the reduction of water insoluble tetrazolium salts e.g., MMT by dehydrogenases and reductases) in the cells is produced and appeared as dark crystals in the bottom of the wells. The medium of culture was discarded from each well carefully to avoid disruption of monolayer and 100 μL of dimethylsufoxide (DMSO) was added in each well. The solution was thoroughly mixed in the wells to dissolve the formazan crystals which ultimately result into a purple solution. The absorbance of the 96-wells plate was taken at 570 nm with Labsystems Multiskan EX-Enzyme-linked immunosorbent assay (EX-ELISA) reader against a reagent blank. The IC50 values were calculated from three independent experiments by generating an equation of logarithmic trendline of percentage cell viability against concentration of compounds in Microsoft Excel.
(§3) Preliminary anti-cancer activity studies were carried out on seven synthesized Pt(II) complexes (1)-(7), Pt(II) precursor, cisplatin and carboplatin against four cancer cell lines HeLa, A549, HCT15 and MCF-7 (human cancer cell lines) and an MTT assay was used to determine their dose-dependent cytotoxicity after 72 h [U. Bierbach, T. W. Hambly, N. Farrell, Inorg.
(§4) The MTT assay was performed in three independent experiments, each in triplicate. The cancer cell lines used are HeLa (human cervical cancer), A549 (human lung cancer), MCF-7 (human breast cancer) and HCT15 (human colon cancer) cell lines.

[2] = system: A549 (human lung cancer) cell line; experiment: In vitro cytotoxic activity, MTT assay, A549; details: for IC50: 50, 25, 12.5 and 6.25 μM, three independent experiments, read-out: IC50 ± SEM (50% cell growth inhibition), A549; for Cytotoxic activity in words (comparison): 6.2 μM to 50 μM
Description: as §1, §2, §3, §4

[3] = system: HeLa (human cervical cancer) cell line; experiment: In vitro cytotoxic activity, MTT assay, HeLa; details: for IC50: 50, 25, 12.5 and 6.25 μM, three independent experiments, read-out: IC50 ± SEM (50% cell growth inhibition), HeLa; for Cytotoxic activity in words (comparison): 6.2 μM to 50 μM
Description: as §1, §2, §3, §4

[4] = system: HCT15 (human colon cancer) cell line; experiment: In vitro cytotoxic activity, MTT assay, HCT15; details: for IC50: 50, 25, 12.5 and 6.25 μM, three independent experiments, read-out: IC50 ± SEM (50% cell growth inhibition), HCT15; for Cytotoxic activity in words (comparison): 6.2 μM to 50 μM
Description: as §1, §2, §3, §4

Row | Compound | IC50 [1] [µM] | IC50 [2] [µM] | IC50 [3] [µM] | IC50 [4] [µM] | Cytotoxic activity in words (comparison) [1] | Cytotoxic activity in words (comparison) [2] | Cytotoxic activity in words (comparison) [3] | Cytotoxic activity in words (comparison) [4]
1 | N.N.[Cl][Pt][Cl] [Cisplatin, cis-diaminedichlorido platinum(II) complex cis-[(NH3)2PtCl2], reference compound] | 22.4 ± 1.37 | 41.7 ± 1.17 | 19.2 ± 1.81 | 29.7 ± 2.35 | – | – | – | –
2 | cis-bis(triethylphosphine)di(tetrahydropyrimidine-2(1H)-thione)platinum(II) [Complex (5)] | 4.73 ± 0.95 | 4.5 ± 0.78 | 2.23 ± 0.52 | 6.87 ± 1.07 | – | – | – | –
3 | CC[PH](CC)(CC)[Pt+2]([SH]=C1NCCN1)([SH]=C1NCCN1)[PH](CC)(CC)CC.[Cl-].[Cl-] [Complex (1), cis-bis(triethylphosphine)di(imidazolidine-2-thione)platinum(II)] | 4.67 ± 1.05 | 3.5 ± 0.74 | 1.4 ± 0.29 | 7.03 ± 1.04 | – | – | – | –
4 | cis-bis(triethylphosphine)di(1-methylimidazolidine-2-thione)platinum(II) [Complex (2)] | 2.63 ± 0.88 | 3.93 ± 0.47 | 1.83 ± 0.26 | 8.6 ± 0.93 | – | – | – | –
5 | CCP(CC)CC.CCP(CC)CC.[Cl][Pt][Cl] [Pt(II) precursor, cis-Bis(triethylphosphine)platinum(II)chloride, reference compound] | 59.8 ± 2.15 | 55.6 ± 2.53 | 45.8 ± 2.33 | 39.1 ± 1.98 | – | – | – | –
6 | CCN1CCCNC1=[SH][Pt+2]([SH]=C1NCCCN1CC)([PH](CC)(CC)CC)[PH](CC)(CC)CC.[Cl-].[Cl-] [Complex (6)] | 1.23 ± 0.34 | 3.6 ± 0.72 | 1.83 ± 0.35 | 5.7 ± 0.91 | highest activity | better than cisplatin and carboplatin | better than cisplatin and carboplatin | better than cisplatin and carboplatin
7 | CCN1CCN(CC)C1=[SH][Pt+2]([SH]=C1N(CC)CCN1CC)([PH](CC)(CC)CC)[PH](CC)(CC)CC.[Cl-].[Cl-] [Complex (4), cis-bis(triethylphosphine)di(1,3-diethylimidazolidine-2-thione)platinum(II)] | 13.5 ± 1.36 | 12.6 ± 1.09 | 9.9 ± 1.65 | 16.1 ± 1.13 | – | – | – | –
8 | CC[PH](CC)(CC)[Pt+2]([SH]=C1NCCCCN1)([SH]=C1NCCCCN1)[PH](CC)(CC)CC.[Cl-].[Cl-] [Complex (7), cis-bis(triethylphosphine)di(1,3-diazepane-thione)platinum(II)] | 22.3 ± 1.35 | 27.7 ± 1.48 | 17.3 ± 1.34 | 37.1 ± 1.86 | – | – | – | –
9 | N.N.O=C([O-])C1(C(=O)[O-])CCC1.[Pt+2] [Carboplatin, carboplatin, reference compound] | 55.6 ± 2.53 | 71.2 ± 2.84 | 56.5 ± 2.23 | 63.9 ± 2.25 | – | – | – | –
10 | CC[PH](CC)(CC)[Pt+2]([SH]=C1N(C)CCN1C)([SH]=C1N(C)CCN1C)[PH](CC)(CC)CC.[Cl-].[Cl-] [Complex (3), cis-bis(triethylphosphine)di(1,3-dimethylimidazolidine-2-thione)platinum(II)] | 3.77 ± 0.61 | 2.37 ± 0.29 | 1.5 ± 0.21 | 4.23 ± 0.73 | most effective against all cancer cell lines | most effective against all cancer cell lines | most effective against all cancer cell lines | most effective against all cancer cell lines
